Measured values as given in patent publication US20090239920A1, “PHARMACEUTICAL FORMULATIONS OF AN ANHYDRATE CRYSTAL FORM OF 2-(3-FLUORO-4-HYDROXYPHENYL)-7-VINYL-1,3-BENZOXAZOL-5-OL” (WYETH, priority 2006, published 2009).

Assay: Crystal form conversion of Form D suspended and stirred in solvent at room temperature for seven days
Assay type: physicochemical
Excerpt: The anhydrate crystal form (Form D) can be converted to other crystal forms under suitable conditions. […] 6, 2006).

Compound: C=Cc1cc(O)cc2nc(-c3ccc(O)c(F)c3)oc12 [Form D, 2-(3-fluoro-4-hydroxyphenyl)-7-vinyl-1,3-benzoxazol-5-ol]
- crystal form conversion (polymorphic stability) (suspended and stirred in ethanol or acetone at room temperature for seven days): another anhydrate crystal form is obtained
- crystal form conversion (polymorphic stability) (suspended and stirred in methanol at room temperature for seven days): another anhydrate crystal form is obtained
- crystal form conversion (polymorphic stability) (suspended and stirred in water at room temperature for seven days): most of the anhydrate crystal form is converted to a hydrate crystal form
